Read-outs that look alike come from different tables or passages of the source.
Key:
HCT116 = experiment: In Vitro cytotoxicity measured by the cell colony formation assay; type: cell-based, human; settings: Homo sapiens, HCT-116; read-out: IN VITRO ID 50 HCT116
Summary of the method: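 Four hundred cells per dish in McCoy's 5a medium with 10% FBS were allowed to attach for 5 h at 37 °C. They were then exposed to compound for 72 h at 37 °C, added as a 10× stock made fresh in medium. After HBSS rinsing and refeeding, colonies were counted after 7 days.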

blood cell populations = experiment: Effect of oral treatment on blood cell populations and body weight in the MX-1 study (Example 22); type: in vivo, nu/nu mice; parameters: neutrophil reduction: concentration or dose not given beside the values; settings: for Monocytes (K/µL) / Neutrophils (K/µL): Day 4; for Monocytes (K/µL) / Neutrophils (K/µL) / Maximum Weight Loss (Day): single oral bolus Day 1; for Maximum Weight Loss (Day): body weight, day of maximum in parentheses in the cell
Protocol: (§1) Antitumor compounds were administered orally in a study to investigate whether such a formulation is efficacious against the MX-1 human breast carcinoma xenograft. Antitumor compound 0499 was formulated as Solution 1 in Example 6. Antitumor compound 0550 was formulated as Solution 2 in Example 6. Antitumor compound 0611 was formulated as Solution 3 in Example 6. Antitumor compound 0748 was formulated as Solution 4 in Example 6. Other antitumor compounds were formulated similarly. The compounds were prepared in a vehicle of 90% saline, 5% Cremophor, and 5% ethanol.
(§2) Female nu/nu mice (11-12 weeks of age; implanted subcutaneously with 1 mm^3 MX-1 human breast carcinoma fragments in the flank) were sorted into one control group (n=10) and four treatment (n=6) groups (group mean tumor size of 47-49 mg). The study was terminated on Day 63.
In addition to survival and tumor regression responses, the effect of treatment on blood cell populations was assessed. The major effect of these antitumor compounds on blood cell populations was a marked reduction in the neutrophil cell number. As well, monocyte depletion correlated fairly well with neutrophil reduction for each antitumor compound. […] There was a correlation between antitumor activity and reduced neutrophil count. In general, toxicity (as determined by neutrophil depletion) and weight loss correlated with efficacy. […] Importantly, the toxicities observed with the very efficacious antitumor compounds were manageable and reversible; neutrophil count and body weight rebounded from their low points in just a few days. Table 20 summarizes the weight reduction, neutrophil and monocyte measurements on Day 4, with tumor weight reduction calculated at Day 18: Table 20

[1] = test system: MX-1 human breast carcinoma; type: in vivo; settings: for Toxic Deaths / Complete Response / Partial Response / Stable Disease: number of mice, mg/kg: 0499 80, 0550 73, 0611 113, 0748 200, 6 mice/group; for Complete Response / Partial Response / Stable Disease: Day 63; for % Reduction (Weight): po, 432 h
Protocol: as §1, §2

[2] = test system: Panc-1 pancreatic carcinoma; experiment: In vivo evaluation against Panc-1 human pancreatic carcinoma (Example 17); settings: i.v. qd x 1
Protocol: (§3) The dosing volume was 0.3 ml per 20 g mouse.
Female NCr-nude mice were implanted subcutaneously with 1 mm^3 Panc-1 pancreatic carcinoma fragments in the flank and sorted into treatment groups of six mice each. […] Dosing was initiated on Day 1. The antitumor compounds were given i.v. at an estimated maximum tolerated dose (MTD) appropriate for each agent on a qd x 1 schedule (single administration of compound). […] The vehicle was administered i.v. to control mice in Group 1 on the qd x 1 schedule. The study was terminated on Day 60.
(§4) The mean days of survival is the number of days after which a neoplasm reached a size of 1.5 g and the animal was euthanized. A complete response is obtained if the tumor shrinks to a size smaller than its size on Day 1 of the study.

DU145 prostate carcinoma = settings: for Toxic Deaths / Survivors: number of 5 mice, Day 91; for Toxic Deaths: i.v. qd x 1 at estimated MTD (Taxol 24 mg/kg as two split doses); for Survivors: i.v. qd x 1 at estimated MTD (Taxol 24 mg/kg split)
Description: Dosing was initiated on Day 1. […] Treatment groups are detailed in Table 5.

[3] = test system: Panc-1 pancreatic carcinoma; settings: for Mean Score: iv
Protocol: as §3
Female NCr-nude mice were implanted subcutaneously with 1 mm^3 Panc-1 pancreatic carcinoma fragments in the flank and sorted into treatment groups of six mice each. […] Dosing was initiated on Day 1. The antitumor compounds were given i.v. at an estimated maximum tolerated dose (MTD) appropriate for each agent on a qd x 1 schedule (single administration of compound). […] The vehicle was administered i.v. to control mice in Group 1 on the qd x 1 schedule.
as §4

VM46 colon carcinoma = test system: VM46 colon carcinoma
Protocol: Dosing was initiated on Day 1. […] Taxotere was given i.v. at a dose of 70 mg/kg on a qd x 1 schedule.

A375 melanoma = settings: for mean group weight losses: A375, i.v. qd x 1; for Toxic Deaths / Survivors: number of mice, i.v. qd x 1 at estimated MTD (Taxol 24 mg/kg, Taxotere 70 mg/kg), 6 mice/group (Taxotere 7); for Survivors: Day 60
Protocol: Dosing was initiated on Day 1. […] Taxotere was given i.v. on a qd x 1 schedule at a dose of 70 mg/kg. […] The study was terminated on Day 60. Treatment groups are detailed in Table 9.

A2780 ovarian carcinoma = test system: A2780 ovarian carcinoma
Protocol: Dosing was initiated on Day 1. […] Taxotere was given i.v. on a qd x 1 schedule at a dose of 70 mg/kg. […] The study was terminated on Day 60. Treatment groups are detailed in Table 7.

MX-1 carcinoma = test system: MX-1 carcinoma
Summary of the method: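 Mice dosed with a single i.v. bolus (qd x 1) at each compound's MTD, formulated in 5% ethanol, 5% Cremophor, 90% isotonic saline. Study ended Day 60; complete response = tumor not palpable at study end.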

HCT116 carcinoma = test system: HCT116 carcinoma
Summary of the method: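 Mice bearing HCT116 tumours received a single i.v. maximum tolerated dose per compound, formulated in 5% ethanol, 5% Cremophor, 90% isotonic saline. Study ended on Day 60; complete response meant no palpable tumour at study end.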

[4] = Day 4, vs vehicle, single oral bolus, mg/kg: 0499 80, 0550 73, 0611 113, 0748 200
[5] = mg/kg: 0499 80, 0550 73, 0611 113, 0748 200
[6] = number of mice, mg/kg: Taxol 36, 0499 77, 0503 72.6, 0670 123.1, 0706 107.6, 0838 72.6, 0854 76.9, 6 mice/group, Day 60
[7] = number of mice, i.v. qd x 1, mg/kg: Taxol 24, 0854 46.6, 1011 107.6, 6 mice/group
[8] = number of mice, i.v. qd x 1, mg/kg: Taxol 24, 0854 46.6, 1011 107.6, 6 mice/group, Day 63
[9] = number of mice, i.v. qd x 1, mg/kg: Taxol 24, 0499 77, 0503 72.6, 0670 123.1, 0706 107.6, 0838 72.6, 0854 46.6, 0983 67.4, Taxotere 70, 6 mice/group, Day 64
[10] = A2780, i.v. qd x 1, five mice per group
[11] = Panc-1 (Example 18), i.v. qd x 1, six mice per group

SMILES: CCC(=O)O[C@H]1C(=O)[C@@]2(C)[C@H]([C@H](OC(=O)c3ccccc3)[C@]3(O)C[C@H](OC(=O)[C@H](O)[C@@H](NC(=O)OC(C)(C)C)c4cccs4)C(C)=C1C3(C)C)[C@]1(OC(C)=O)CO[C@@H]1C[C@@H]2O [Compound 0550]
- IC50 (HCT116): < 10 nM
- % Reduction (Monocytes) (blood cell populations; [4]): 80.2%
- % Reduction (Neutrophils) (blood cell populations; [4]): 95.9%
- Monocytes (K/µL) (blood cell populations; [5]): 0.019 K/µL
- Neutrophils (K/µL) (blood cell populations; [5]): 0.037 K/µL
- neutrophil reduction (blood cell populations; MX-1 study, single oral bolus, day 4): 95.9%
- body weight loss (blood cell populations; MX-1 study, single oral bolus, day 5): 16.1%
- Maximum Weight Loss (Day) (blood cell populations; [5]): -16.1% (5)
- complete tumor regressions ([1]; MX-1, single oral bolus Day 1, six mice per group (0611: five evaluable), ended Day 63): six
- Toxic Deaths ([1]; single oral bolus Day 1): 0
- Complete Response ([1]; single oral bolus Day 1): 6
- Partial Response ([1]; single oral bolus Day 1): 0
- Stable Disease ([1]; single oral bolus Day 1): 0
- % Reduction (Weight) [1]: 100.0%

SMILES: CCC(=O)O[C@H]1C(=O)[C@@]2(C)[C@H]([C@H](OC(=O)c3ccccc3)[C@]3(O)C[C@H](OC(=O)[C@H](O)[C@@H](NC(=O)c4ccccc4)c4ccccc4)C(C)=C1C3(C)C)[C@]1(OC(C)=O)CO[C@@H]1C[C@@H]2O [Compound 0748]
- IC50 (HCT116): < 10 nM
- % Reduction (Neutrophils) (blood cell populations; [4]): 70.5%
- Monocytes (K/µL) (blood cell populations; [5]): 0.117 K/µL
- Neutrophils (K/µL) (blood cell populations; [5]): 0.269 K/µL
- Maximum Weight Loss (Day) (blood cell populations; [5]): -4.6% (5)
- antitumor activity ([1]; MX-1, single oral bolus Day 1): significant survival extensions compared to vehicle control mice
- Toxic Deaths ([1]; single oral bolus Day 1): 0
- Complete Response ([1]; single oral bolus Day 1): 0
- Partial Response ([1]; single oral bolus Day 1): 0
- Stable Disease ([1]; single oral bolus Day 1): 1
- % Reduction (Weight) [1]: 69.1%

SMILES: CC(=O)O[C@@]12CO[C@@H]1C[C@H](O)[C@@]1(C)C(=O)[C@H](OC(=O)C3CC3)C3=C(C)[C@@H](OC(=O)[C@H](O)[C@@H](NC(=O)OC(C)(C)C)c4cccs4)C[C@@](O)([C@@H](OC(=O)c4ccccc4)[C@H]21)C3(C)C [Compound 0854]
- Toxic Deaths ([2]; Panc-1 (Example 17), six mice per group): six
- Toxic Deaths ([2]; number of mice, mg/kg: Taxol 36, 0499 77, 0503 72.6, 0670 123.1, 0706 107.6, 0838 72.6, 0854 76.9, 6 mice/group): 6
- Complete Response [2, 6]: 0
- Partial Response [2, 6]: 2
- Stable Disease [2, 6]: 0
- Mean Score ([2]; tumor scoring system, mg/kg: Taxol 36, 0499 77, 0503 72.6, 0670 123.1, 0706 107.6, 0838 72.6, 0854 76.9, 6 mice/group): 0 ± 0
- IC50 (HCT116): < 1 nM
- Toxic Deaths (DU145 prostate carcinoma): 5
- Survivors (DU145 prostate carcinoma): 0
- Mean Score [3]: 0 ± 0
- Toxic Deaths [3, 7]: 6
- Complete Response [3, 8]: 0
- Partial Response [3, 8]: 0
- Stable Disease [3, 8]: 0
- response rate (VM46 colon carcinoma; VM46, i.v. qd x 1 at estimated MTD): 16.7-40%
- Mean Score (VM46 colon carcinoma; iv): 4.7 ± 1.6
- MDS (n) (VM46 colon carcinoma; iv, 1536 h): 52.9 ± 6.6 (2) days
- maximal mean weight loss (VM46 colon carcinoma; mouse, in vivo, iv): under 12%
- Toxic Deaths (VM46 colon carcinoma; number of mice, i.v. qd x 1, mg/kg: Taxol 24, 0499 77, 0503 72.6, 0670 123.1, 0706 107.6, 0838 72.6, 0854 46.6, 0983 67.4, Taxotere 70, 6 mice/group): 1
- Complete Response (VM46 colon carcinoma; [9]): 0
- Partial Response (VM46 colon carcinoma; [9]): 2
- Stable Disease (VM46 colon carcinoma; [9]): 1
- Survivors (VM46 colon carcinoma; [9]): 3
- mean group weight losses (A375 melanoma): 20 - 30%
- Toxic Deaths (A375 melanoma): 6
- Survivors (A375 melanoma): 0

SMILES: CCCC(=O)O[C@H]1C(=O)[C@@]2(C)[C@H]([C@H](OC(=O)c3ccccc3)[C@]3(O)C[C@H](OC(=O)[C@H](O)[C@@H](NC(=O)OC(C)(C)C)c4ccsc4)C(C)=C1C3(C)C)[C@]1(OC(C)=O)CO[C@@H]1C[C@@H]2O [Compound 1011]
- IC50 (HCT116): < 1 nM
- maximal mean group weight loss (A2780 ovarian carcinoma; A2780, i.v. qd x 1, Day 5): 11.3%
- Complete Response (A2780 ovarian carcinoma; [10]): 1
- Toxic Deaths (A2780 ovarian carcinoma; [10]): no toxic deaths
- partial responses (A2780 ovarian carcinoma; [10]): 3
- tolerability / toxicity (A2780 ovarian carcinoma; mouse, in vivo, iv): well-tolerated
- mortality rate (DU145 prostate carcinoma; DU145, i.v. qd x 1 at the administered dose, five animals): ≥ 40%
- Toxic Deaths (DU145 prostate carcinoma): 3
- Survivors (DU145 prostate carcinoma): 0
- Partial Response (MX-1 carcinoma; iv): 0
- Complete Response (MX-1 carcinoma; iv, 1440 h): 6
- Mean Score (MX-1 carcinoma; iv, 1440 h): 10 ± 0
- Stable Disease (MX-1 carcinoma; iv, 1440 h): 0
- Survivors (MX-1 carcinoma; number of 6 mice, i.v. qd x 1 at MTD, Day 60, doses as in E17): 6
- Toxic Deaths (MX-1 carcinoma; number of 6 mice, i.v. qd x 1 at MTD, Day 60, mg/kg: Taxol 36 (split dose), 0503 72.6, 0536 49, 0663 159, 0670 123, 0687 159, 0706 108, 0908 159, 0947 76.9, 0951 72.6, 0983 67.4, 0999 49, 1003 49, 1011 108): 0
- partial responses [3, 11]: three
- toxic deaths / toxic lethalities [3, 11]: three
- overall response rate ([3]; Panc-1 (Example 18), i.v. qd x 1 at estimated MTD): 100%
- Mean Score [3]: 4 ± 1.8
- Toxic Deaths [3, 7]: 3
- Complete Response [3, 8]: 0
- Partial Response [3, 8]: 3
- Stable Disease [3, 8]: 0
- Survivors [3, 8]: 3
- Partial Response (HCT116 carcinoma; iv): 2
- Complete Response (HCT116 carcinoma; iv, 1440 h): 3
- Mean Score (HCT116 carcinoma; iv, 1440 h): 9.6 ± 0.2
- Stable Disease (HCT116 carcinoma; iv, 1440 h): 0
- Survivors (HCT116 carcinoma; number of 5 mice, i.v. qd x 1 at MTD, Day 60, doses as in E3): 5
- Toxic Deaths (HCT116 carcinoma; number of 5 mice, i.v. qd x 1 at MTD, Day 60, mg/kg: Taxol 36 (split doses), 0503 72.6, 0536 49, 0663 159, 0670 123, 0687 159, 0706 108, 0908 159, 0947 76.9, 0951 72.6, 0983 72.6, 0999 49, 1003 49, 1011 108): 0
- mean group weight losses (A375 melanoma): 20 - 30%
- Toxic Deaths (A375 melanoma): 3
- Survivors (A375 melanoma): 0
